Assay results published in patent publication US10183943B2, “Heterocyclic compounds and their use in preventing or treating bacterial infections” (MUTABILIS, priority 2015, dated 2019).

Experiments:
AmpC (P99) = AmpC (P99) (Enterobacter cloacae, UniProt P05364); assay: β-lactamase inhibitory activity, determination of IC50 (nitrocefin hydrolysis)
CTX-M-15 = molecular target: T1, CTX-M-15 (Escherichia coli, UniProt Q9EXV5); assay: as above; assay type: biochemical; conditions: class (A); nitrocefin 200 μM, 30 min pre-incubation; read-out: IC50 β-lactamase CTX-M-15
T1 construct: made in house; host or cells: E. coli
T1 sequence (Q9EXV5 entry or part of it): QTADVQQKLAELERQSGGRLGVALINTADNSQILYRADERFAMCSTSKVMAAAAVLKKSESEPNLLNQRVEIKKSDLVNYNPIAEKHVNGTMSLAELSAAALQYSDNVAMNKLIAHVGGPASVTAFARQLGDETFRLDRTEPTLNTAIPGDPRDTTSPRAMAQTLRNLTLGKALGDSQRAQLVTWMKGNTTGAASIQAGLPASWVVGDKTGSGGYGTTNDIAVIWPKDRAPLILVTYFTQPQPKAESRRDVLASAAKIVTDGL

OXA-15 = molecular target: T2, OXA-15 (Pseudomonas aeruginosa, UniProt Q51574); assay: biochemical
T2 construct: made in house; host or cells: E. coli
T2 sequence (Q51574 22-275): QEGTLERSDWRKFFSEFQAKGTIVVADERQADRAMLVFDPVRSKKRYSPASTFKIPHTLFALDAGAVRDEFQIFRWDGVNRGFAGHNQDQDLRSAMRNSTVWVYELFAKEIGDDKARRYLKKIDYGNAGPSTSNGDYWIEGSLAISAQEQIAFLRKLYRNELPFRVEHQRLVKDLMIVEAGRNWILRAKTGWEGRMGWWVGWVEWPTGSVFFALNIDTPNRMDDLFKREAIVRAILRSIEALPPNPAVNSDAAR

OXA-1 = molecular target: T3, OXA-1 (Escherichia coli, UniProt P13661); assay: β-lactamase inhibitory activity, determination of IC50 (nitrocefin hydrolysis); assay type: biochemical; conditions: class (D); nitrocefin 200 μM, 30 min pre-incubation; read-out: IC50 β-lactamase OXA-1
T3 construct: made in house; host or cells: E. coli
T3 sequence (P13661 26-276): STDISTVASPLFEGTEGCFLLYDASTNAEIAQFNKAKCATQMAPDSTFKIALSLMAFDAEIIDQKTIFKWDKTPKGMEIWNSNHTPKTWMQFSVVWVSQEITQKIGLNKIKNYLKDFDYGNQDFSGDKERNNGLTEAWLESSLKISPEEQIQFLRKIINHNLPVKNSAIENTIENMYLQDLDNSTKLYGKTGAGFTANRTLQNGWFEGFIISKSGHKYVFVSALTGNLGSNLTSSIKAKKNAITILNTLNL

OXA-11 = molecular target: T4, OXA-11 (Pseudomonas aeruginosa, UniProt Q06778); assay: as above; assay type: biochemical
T4 construct: made in house; host or cells: E. coli
T4 sequence (Q06778 21-266): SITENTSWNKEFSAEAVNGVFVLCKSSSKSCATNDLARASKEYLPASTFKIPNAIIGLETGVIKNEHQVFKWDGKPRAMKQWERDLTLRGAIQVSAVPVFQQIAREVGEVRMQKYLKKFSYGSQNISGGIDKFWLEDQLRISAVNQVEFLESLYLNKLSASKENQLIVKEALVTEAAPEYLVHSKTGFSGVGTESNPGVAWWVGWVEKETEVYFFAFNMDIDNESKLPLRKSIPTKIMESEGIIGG

[1] = test system: K. pneumoniae 6299 (TEM-1, SHV-11, OXA-163); assay: MIC of compounds alone, broth microdilution; assay type: cell-based; conditions: Klebsiella pneumoniae; strain 6299 (K. pneumoniae); read-out: MIC compounds of the invention alone
Protocol: (§1) Method 2: MIC of Compounds and Synergy with Ceftazidime Against Bacterial Isolates (Table 2 and 3)
(§2) Compounds of the present invention were assessed against genotyped bacterial strains alone or in combination with the β-lactam ceftazidime (CAZ). In the assays, MICs of said compounds, or of ceftazidime at fixed concentrations of said compounds were determined by the broth microdilution method according to the Clinical Laboratory Standards Institute (CLSI-M7-A7). Briefly, compounds alone according to the invention were prepared in DMSO and spotted (2 μL each) on sterile polystyrene plates (Corning, 3788). Compounds and ceftazidime dilutions were prepared in DMSO and spotted (1 μL each) on sterile polystyrene plates (Corning, 3788). Log phase bacterial suspensions were adjusted to a final density of 5×10^5 cfu/mL in cation-adjusted Mueller-Hinton broth (Becton-Dickinson) and added to each well (98 μL). Microplates were incubated for 16-20 h at 35° C. in ambient air. The MIC of the compounds was defined as the lowest concentration of said compounds that prevented bacterial growth as read by visual inspection. The MIC of ceftazidime at each compound concentration was defined as the lowest concentration of ceftazidime that prevented bacterial growth as read by visual inspection.

[2] = test system: E. coli 190317 (TEM-1, SHV-12, CTX-M-15, OXA-1); assay: MIC of compounds alone, broth microdilution; assay type: cell-based; conditions: Escherichia coli, read-out: MIC compounds of the invention alone
Protocol: as §1, §2

E. cloacae P99 (AmpC) = assay: MIC of compounds alone, broth microdilution; assay type: cell-based; conditions: Enterobacter cloacae; strain P99 (E. cloacae); read-out: MIC compounds of the invention alone
Protocol: as §1, §2

[3] = test system: P. aeruginosa CIP107051 (TEM-24); assay: MIC of compounds alone, broth microdilution; assay type: cell-based; conditions: Pseudomonas aeruginosa; strain CIP107051 (P. aeruginosa); read-out: MIC compounds of the invention alone
Protocol: as §1, §2

[4] = test system: E. coli 131119 (TEM-1, OXA-48); assay: MIC of compounds alone, broth microdilution; assay type: cell-based; conditions: Escherichia coli; strain 131119 (E. coli); read-out: MIC compounds of the invention alone
Protocol: as §1, §2

E. coli RGN238 (OXA-1) = assay: MIC of compounds alone, broth microdilution; assay type: cell-based; conditions: Escherichia coli; strain RGN238 (E. coli); read-out: MIC compounds of the invention alone
Protocol: as §1, §2

[5] = test system: K. pneumoniae BAA-1898 (TEM-1, SHV-11, SHV-12, KPC-2); assay: MIC of compounds alone, broth microdilution; assay type: cell-based; conditions: Klebsiella pneumoniae, BAA1898; strain BAA-1898 (K. pneumoniae); read-out: MIC compounds of the invention alone
Protocol: as §1, §2

TEM-1 = molecular target: T5, TEM-1 (Escherichia coli, UniProt P62593); assay: β-lactamase inhibitory activity, determination of IC50 (nitrocefin hydrolysis); assay type: biochemical
T5 construct: made in house; host or cells: E. coli
T5 sequence (P62593 24-286 limits assumed): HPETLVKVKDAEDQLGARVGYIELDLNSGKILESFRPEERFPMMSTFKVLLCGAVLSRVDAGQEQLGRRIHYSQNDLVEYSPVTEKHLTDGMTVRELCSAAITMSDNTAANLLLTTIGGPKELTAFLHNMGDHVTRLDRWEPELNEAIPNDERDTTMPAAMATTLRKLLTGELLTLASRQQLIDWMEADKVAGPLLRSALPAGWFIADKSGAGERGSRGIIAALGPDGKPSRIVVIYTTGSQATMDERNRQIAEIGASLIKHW

SHV-1 = molecular target: T6, SHV-1 (Klebsiella pneumoniae, UniProt P0AD64); assay: as above; assay type: biochemical
T6 construct: made in house; host or cells: E. coli
T6 sequence (P0AD64 22-286): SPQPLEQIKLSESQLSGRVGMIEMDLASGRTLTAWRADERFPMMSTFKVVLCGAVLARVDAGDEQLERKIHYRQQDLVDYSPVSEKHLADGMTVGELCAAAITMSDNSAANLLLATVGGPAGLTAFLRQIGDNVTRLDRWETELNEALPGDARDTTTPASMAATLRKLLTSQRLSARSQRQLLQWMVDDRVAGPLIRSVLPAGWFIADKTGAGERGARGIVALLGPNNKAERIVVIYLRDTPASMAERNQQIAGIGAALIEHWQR

AmpC P. aeruginosa = AmpC P. aeruginosa (Pseudomonas aeruginosa, UniProt P24735); assay: as above
AmpC P. aeruginosa, sequence (P24735 27-397): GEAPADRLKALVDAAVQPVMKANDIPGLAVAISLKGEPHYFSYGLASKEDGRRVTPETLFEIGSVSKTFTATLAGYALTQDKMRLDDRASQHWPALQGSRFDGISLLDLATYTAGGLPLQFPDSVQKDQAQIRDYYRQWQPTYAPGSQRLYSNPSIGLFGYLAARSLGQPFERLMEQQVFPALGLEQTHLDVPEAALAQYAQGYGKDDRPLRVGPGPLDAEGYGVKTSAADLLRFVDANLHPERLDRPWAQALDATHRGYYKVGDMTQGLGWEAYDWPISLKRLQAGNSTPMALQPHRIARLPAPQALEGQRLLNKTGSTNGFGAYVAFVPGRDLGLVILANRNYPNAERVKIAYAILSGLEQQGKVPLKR

KPC-2 = molecular target: T7, KPC-2 (Klebsiella pneumoniae, UniProt Q9F663); assay: as above; assay type: biochemical; conditions: class (A); nitrocefin 200 μM, 30 min pre-incubation; read-out: IC50 β-lactamase KPC-2
T7 construct: made in house; host or cells: E. coli
T7 sequence (Q9F663 25-293 limits assumed): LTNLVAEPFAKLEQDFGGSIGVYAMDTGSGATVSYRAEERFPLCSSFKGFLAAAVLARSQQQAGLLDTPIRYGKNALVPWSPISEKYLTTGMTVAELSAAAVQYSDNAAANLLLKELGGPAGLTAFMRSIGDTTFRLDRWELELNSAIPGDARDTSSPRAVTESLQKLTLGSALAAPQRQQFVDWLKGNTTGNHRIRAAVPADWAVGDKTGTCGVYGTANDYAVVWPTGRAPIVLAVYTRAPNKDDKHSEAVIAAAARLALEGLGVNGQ

OXA-48 = molecular target: T8, OXA-48 (Klebsiella pneumoniae, UniProt Q6XEC0); assay: as above; assay type: biochemical; conditions: class (D); nitrocefin 200 μM, 30 min pre-incubation; read-out: IC50 β-lactamase OXA-48
T8 construct: made in house; host or cells: E. coli
T8 sequence (Q6XEC0 23-265 limits assumed): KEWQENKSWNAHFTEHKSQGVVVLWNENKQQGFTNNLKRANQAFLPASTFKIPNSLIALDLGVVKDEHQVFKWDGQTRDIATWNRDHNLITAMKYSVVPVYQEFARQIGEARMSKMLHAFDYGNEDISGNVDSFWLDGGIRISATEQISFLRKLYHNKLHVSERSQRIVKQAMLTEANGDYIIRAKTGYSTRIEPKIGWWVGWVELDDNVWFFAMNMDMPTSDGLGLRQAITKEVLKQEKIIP

AmpC (P99), sequence (P05364 21-381): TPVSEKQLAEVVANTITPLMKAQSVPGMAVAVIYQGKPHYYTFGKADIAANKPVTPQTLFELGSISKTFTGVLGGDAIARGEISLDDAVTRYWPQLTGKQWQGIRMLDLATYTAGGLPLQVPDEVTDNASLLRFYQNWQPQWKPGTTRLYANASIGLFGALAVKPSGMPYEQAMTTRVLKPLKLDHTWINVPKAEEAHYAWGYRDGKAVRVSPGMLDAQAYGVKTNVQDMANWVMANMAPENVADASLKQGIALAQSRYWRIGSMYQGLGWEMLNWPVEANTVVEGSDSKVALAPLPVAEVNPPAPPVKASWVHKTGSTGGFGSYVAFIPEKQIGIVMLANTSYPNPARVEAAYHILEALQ

Row | SMILES | IC50 (AmpC (P99)) [nM] | IC50 (CTX-M-15) [nM] | IC50 (OXA-15) [nM] | IC50 (OXA-1) [nM] | IC50 (OXA-11) [nM] | MIC [1] [µg/mL] | MIC [2] [µg/mL] | MIC (E. cloacae P99 (AmpC)) [µg/mL] | MIC [3] [µg/mL] | MIC [4] [µg/mL] | MIC (E. coli RGN238 (OXA-1)) [µg/mL] | MIC [5] [µg/mL] | IC50 (TEM-1) [nM] | IC50 (SHV-1) [nM] | IC50 (AmpC P. aeruginosa) [nM] | IC50 (KPC-2) [nM] | IC50 (OXA-48) [nM]
1 | O=C1N2CC=C(c3cn[nH]c3)C(C2)N1OS(=O)(=O)[O-].[Na+] (centres unmarked) [Example 1, Sodium (7-oxo-4-pyrazol-4-yl-1,6-diaza-bicyclo[3.2.1]oct-3-en-6-yl) sulfate] | 6100 | 26 | 590 | 1400 | 2900 | > 32 | 32 | > 32 | > 32 | > 32 | > 32 | > 32 | 13 | 29 | 9300 | 770 | 8.9
2 | Cn1nccc1C1=CCN2CC1N(OS(=O)(=O)[O-])C2=O.[Na+] (centres unmarked) [Example 2, Sodium [4-(2-methylpyrazol-3-yl)-7-oxo-1,6-diazabicyclo[3.2.1]oct-3-en-6-yl] sulfate] | 670 | 33 | 9.8 | 64 | 910 | > 32 | > 32 | > 32 | > 32 | > 32 | > 32 | > 32 | 2.7 | 6.4 | 960 | 1200 | 2.8
3 | O=C1N2CC=C(c3ncco3)C(C2)N1OS(=O)(=O)[O-].[Na+] (centres unmarked) [Example 4, Sodium [4-(oxazol-2-yl)-7-oxo-1,6-diazabicyclo[3.2.1]oct-3-en-6-yl]sulfate] | 1500 | 7.5 | 46 | 260 | 800 | > 32 | 8 | 16 | > 32 | 16 | 32 | > 32 | 2.9 | 8.4 | 940 | 390 | 2.9
4 | O=C1N2CC=C(c3ccncc3)C(C2)N1OS(=O)(=O)[O-].[Na+] (centres unmarked) [Example 7, Sodium [4-(4-pyridyl)-7-oxo-1,6-diazabicyclo[3.2.1]oct-3-en-6-yl]sulfate] | 1700 | 13 | 95 | 250 | 2300 | > 32 | 8 | > 32 | > 32 | > 32 | > 32 | > 32 | 12 | 30 | 2200 | 150 | 4.9
5 | Cn1cc(C2=CCN3CC2N(OS(=O)(=O)[O-])C3=O)ccc1=O.[Na+] (centres unmarked) [Example 8, Sodium [4-(N-methyl-6-oxo-3-pyridyl)-7-oxo-1,6-diazabicyclo[3.2.1]oct-3-en-6-yl] sulfate] | 1900 | 12 | 140 | 690 | 1400 | > 32 | 8 | > 32 | > 32 | > 32 | > 32 | > 32 | 8.2 | 19 | 3300 | 170 | 2.2
6 | O=C1N2CC=C(c3cncnc3)C(C2)N1OS(=O)(=O)[O-].[Na+] (centres unmarked) [Example 10, Sodium [4-(pyrimidin-5-yl)-7-oxo-1,6-diazabicyclo[3.2.1]oct-3-en-6-yl] sulfate] | 1100 | 8.3 | 140 | 200 | 1300 | > 32 | > 32 | 16 | > 32 | 16 | > 32 | > 32 | 7.7 | 21 | 2600 | 130 | 6.1
7 | O=C1N2CC=C(c3ccccn3)C(C2)N1OS(=O)(=O)[O-].[Na+] (centres unmarked) [Example 11, Sodium [4-(2-pyridyl)-7-oxo-1,6-diazabicyclo[3.2.1]oct-3-en-6-yl]sulfate] | 8900 | 29 | 310 | 1300 | 6400 | > 32 | > 32 | > 32 | > 32 | > 32 | > 32 | > 32 | 27 | 56 | 4600 | 1800 | 5.1
8 | O=C1N2CC=C(c3cnccn3)C(C2)N1OS(=O)(=O)[O-].[Na+] (centres unmarked) [Example 12, Sodium [4-(pyrazin-2-yl)-7-oxo-1,6-diazabicyclo[3.2.1]oct-3-en-6-yl]sulfate] | 1400 | 5.7 | 66 | 350 | 1200 | > 32 | > 32 | > 32 | > 32 | 16 | > 32 | > 32 | 3.1 | 6.9 | 1600 | 310 | 3.2
9 | Cn1cccc(C2=CCN3CC2N(OS(=O)(=O)[O-])C3=O)c1=O.[Na+] (centres unmarked) [Example 16, Sodium [4-(N-methyl-2-oxo-3-pyridyl)-7-oxo-1,6-diazabicyclo[3.2.1]oct-3-en-6-yl] sulfate] | 7300 | 100 | 27 | 720 | 7400 | > 32 | > 32 | > 32 | > 32 | > 32 | > 32 | > 32 | 56 | 120 | 7100 | 4500 | 10
10 | O=C1N2CC(c3cnco3)=CC(C2)N1OS(=O)(=O)[O-].[Na+] (centres unmarked) [Example 35, Sodium [3-(oxazol-5-yl)-7-oxo-1,6-diazabicyclo[3.2.1]oct-3-en-6-yl]sulfate] | 51 | 0.81 | 74 | 1400 | 300 | 8 | – | 8 | > 32 | 2 | 4 | 4 | 2.3 | 8.4 | 210 | 8.2 | 2.5
11 | O=C1N2CC(c3ncon3)=CC(C2)N1OS(=O)(=O)[O-].[Na+] (centres unmarked) [Example 36, Sodium [3-(1,2,4-oxadiazol-3-yl)-7-oxo-1,6-diazabicyclo[3.2.1]oct-3-en-6-yl] sulfate] | 43 | 1.1 | 660 | 2400 | 920 | 16 | – | 8 | > 32 | 1 | 4 | 8 | 2.3 | 16 | 160 | 39 | 2.1
